Results: US11517645B2, “Bone-tendon graft biomaterial, use as a medical device and method of making same” (The Board of Trustees of the Leland Stanford Junior …, priority 2016, dated 2022)

Legend:
C2C12 cells [1] = assay: ALP staining, C2C12 osteoblast differentiation on QHM polymers with BMP-2 in media; format: cell-based, mouse; settings: 25 μM blebbistatin
Procedure: ALP activity was detected according to the manufacturer's instructions (Sigma Aldrich, St. Louis, Mo.) as previously described with minor modifications^18,19.
(§1) For studies on the effect of Young's moduli on osteoblast differentiation (using uniform QHM polymer samples), C2C12 cells were seeded into 24 well plates containing uncoated QHM polymer samples (circular discs approximately 1 cm in diameter) at a density of 7.47×10^4 cells per cm^2 overnight in DMEM, 10% FBS and 1% PS media. […] Media were changed every 48 h. ALP staining was performed at 4, 8 and 14 days.
as §1, with “0 s:300 s UV mechanically-graded” for “uniform”, “(rectangular specimens measuring” for “(circular discs”, “0.5 cm×1 cm)” for “1 cm in diameter)”, “were” for “was”, “3 days post-seeding.” for “4, 8 and 14 days.”
At designated time points, cells were fixed for 1 min in 3.7% formaldehyde and samples were incubated with ALP stain for 1 h. Color images of samples were acquired using an inverted Zeiss AxioObserver Z1 microscope equipped with an AxioCam ICC color camera and a Nikon D70 Digital camera (Nikon Corp., Tokyo, Japan). Where required, the ALP-stained images were quantified by calculating the average pixel intensity in Adobe Photoshop 7.0 as previously described^18,19.

C2C12 cells [2] = assay: SCX immunofluorescence, C2C12 tenocyte differentiation on QHM polymers; format: cell-based, mouse; settings: fibrin-coated QHM polymers in vitro, 3 days
Procedure: (§2) Immunofluorescence staining was performed as previously described with minor modifications^18,19.
For studies on the effect of Young's moduli on osteoblast or tenocyte differentiation (using uniform or 0 s:300 s UV mechanically-graded QHM polymer samples), C2C12 cells were seeded into 24 well plates containing uncoated QHM polymer samples (circular discs approximately 1 cm in diameter or rectangular specimens measuring approximately 0.5 cm×1 cm) at a density of 7.47×10^4 cells per cm^2 overnight in DMEM, 10% FBS and 1% PS media. […] Media were changed every 48 h. SCX staining was performed at 3 days post-seeding. RUNT-RELATED TRANSCRIPTION FACTOR-2 (RUNX-2) or OSTEOCALCIN (OCN) staining was performed at 4 days post-seeding. […]
(§3) Samples were permeabilized with 0.2% Triton X-100 (Sigma Aldrich, St. Louis, Mo.), washed three times in wash buffer (PBS and 0.1% BSA) and blocked with 10% donkey serum (Jackson Immunoresearch, West Gove, Pa.) for 1 h at room temperature. […] Lastly, cells were rinsed five times with wash buffer (5 min each) and fluorescence images were acquired on an inverted Zeiss AxioObserver Z1 microscope equipped with an X-Cite® Series 120Q metal halide lamp, appropriate filters and an AxioCam MRm camera.

C57BL-6J mice = assay: Mouse subcutaneous implantation of growth factor-biopatterned QHM grafts; format: in vivo; settings: 3 μg patterned on fibrin-coated QHM polymer, 14 days subcutaneous
Procedure: Mouse subcutaneous surgeries were performed in accordance with the guidelines established by Stanford University's Administrative Panel on Laboratory Animal Care. Wild-type C57BL-6J mice (Charles River Laboratories, Wilmington, Mass.) between 8 and 12 weeks of age (20-30 g) were used in this study. All mice were maintained in the Stanford Animal Facility, with a 12:12 h light-dark cycle and free access to standard laboratory food and water. Mice were anesthetized by inhalation with isoflurane (4% for induction, 2% for maintenance, Abbott Laboratories, Chicago) as well as administered 0.05 mg/kg Buprenorphine (Hospira Inc., Lake Forest, Ill.) and 25 mg/kg Cefazolin (Thermo Fisher Scientific, Waltham, Mass.) as an analgesic and anti-infective, respectively. Grafts (Square specimens 6×6×1 mm) were comprised of 0 s UV and 300 s UV QHM polymer regions (each measuring 3×3×1 mm) biopatterned with 1) no growth factor, 2) 3 μg FGF-2 on 0 s UV QHM polymer region and 3 μg BMP-2 on 300 s UV QHM polymer region or 3) 3 μg GDF-7 on 0 s UV QHM polymer region and 3 μg BMP-2 on 300 s UV QHM polymer region. Under sterile conditions, a 2.5 cm skin incision was made and grafts were sutured subcutaneously to the skin using 3-0 Nylon sutures (Oasis, Med-Vet International, Mettawa, Ill.) in a bilateral manner. Subsequently, the skin was re-approximated and closed with 3-0 Nylon sutures. […]

C2C12 cells [3] = assay: TENASCIN C and TENOMODULIN immunofluorescence, C2C12 on TCPS with FGF-2; format: cell-based, mouse; settings: 50 or 100 ng/mL FGF-2, TCPS, 3 days
Procedure: as §2
For in vitro studies not involving QHM polymers, C2C12 cells were seeded into 24 well plates at a density of 7.47×10^4 cells per cm^2 in DMEM, 10% FBS, 1% PS media. The following day (Day 0), the media were changed to DMEM, 10% FBS, 1% PS with 0, 50 or 100 ng/mL FGF-2. Media were changed every 48 h. Cells were fixed in 4% paraformaldehyde (Electron Microscopy Sciences, Hatfield, Pa.) for 15 min and TENOMODULIN or TENASCIN C staining was performed at 3 days post-seeding.
as §3

Molecule | Effect on BMP-2-induced ALP activity on QHM polymers (C2C12 cells [1]; 4 days) | Effect on C2C12 ALP activity on TCPS (C2C12 cells [1]; 4 days) | Inhibitory effect on ALP activity (C2C12 cells [1]; 8 days) | Inhibitory effect on ALP activity (C2C12 cells [1]; 14 days) | C2C12 SCX expression on FGF-2 patterns relative to off pattern controls (C2C12 cells [2]) | Tissue formed on growth factor pattern in vivo (C57BL-6J mice) | TENASCIN C expression relative to untreated controls (C2C12 cells [3]) | TENOMODULIN expression relative to untreated controls (C2C12 cells [3])
Cc1ccc2c(c1)C(=O)C1(O)CCN(c3ccccc3)C1=N2 (stereo not drawn) [blebbistatin] | inhibited slightly | did not inhibit | occurred only on 0 s UV QHM polymer | no longer observed | – | – | – | –
FGF-2: fibroblast growth factor-2 (Peprotech), tendon-promoting cue | – | – | – | – | largely increased | reminiscent of immature tendon | increased TENASCIN C expression | increased TENOMODULIN expression
GDF-7: growth and differentiation factor-7 (Sino Biological), tendon-promoting cue (protein, UniProt Q7Z4P5 322-450, looked up) Growth/differentiation factor …: TALAGTRTAQGSGGGAGRGHGRRGRSRCSRKPLHVDFKELGWDDWIIAPLDYEAYHCEGLCDFPLRSHLEPTNHAIIQTLLNSMAPDAAPASCCVPARLSPISILYIDAANNVVYKQYEDMVVEACGCR | – | – | – | – | – | reminiscent of immature tendon | – | –
